Test results taken from publication PMC6686011, “Ruthenium(II) complexes with 6-methyl-2-thiouracil selectively reduce cell proliferation, cause DNA double-strand break and trigger caspase-mediated apoptosis through JNK/p38 pathways in human acute promyelocytic leukemia cells” (Scientific Reports, 2019).

Tests used:
[1] = tested on: BAD KO SV40 MEF (immortalized mouse embryonic fibroblast with the BAD gene knocked out); assay: Cytotoxicity, alamar blue assay; type: cell-based; conditions: Mus musculus, MEF, 72 h, read-out: IC50, BAD KO SV40 MEF cell line
Experimental: (§1) Cytotoxicity was measured using alamar blue assay and was performed following the procedure that was described previously[21],[22]. Briefly, cells were inserted in 96-well plates and incubated overnight. Then, the complexes were dissolved in dimethyl sulfoxide (DMSO, LGC Biotechnology, São Paulo, SP, Brazil) and added to each well and incubated for 72 h. […] Before the end of treatment (4 h for cell lines and 24 h for PBMC), 20 μL of a stock solution (0.312 mg/mL) of alamar blue (resazurin, Sigma-Aldrich Co.) were added to each well. Absorbance at 570 nm and 600 nm was measured using SpectraMax 190 Microplate Reader (Molecular Devices, Sunnyvale, CA, USA).

[2] = tested on: WT SV40 MEF (wild-type immortalized mouse embryonic fibroblasts); assay: Cytotoxicity, alamar blue assay; type: cell-based; conditions: Mus musculus, MEF, 72 h, read-out: IC50, WT SV40 MEF cell line
Experimental: as §1

[3] = tested on: SCC-4 (human oral squamous cell carcinoma); assay: Cytotoxicity, alamar blue assay; type: cell-based; conditions: Homo sapiens, SCC-4; alamar blue, 72 h; read-out: IC50 and 95% CI, SCC-4
Experimental: as §1

[4] = tested on: HL-60 (human acute promyelocytic leukemia); assay: Cytotoxicity, alamar blue assay; type: cell-based; conditions: Homo sapiens, HL-60; alamar blue, 72 h; read-out: IC50 and 95% CI, HL-60
Experimental: as §1

HL-60 cells [5] = assay: Mitochondrial transmembrane potential, rhodamine 123; type: cell-based, human; conditions: HL-60, 24 h; DOX 1 µM
Experimental: Mitochondrial transmembrane potential was determined by retention of dye rhodamine 123 as described previously. Briefly, cells were incubated with rhodamine 123 (5 μg/mL, Sigma-Aldrich Co.) at room temperature for 15 min in dark and washed with saline solution. Cells were incubated again in saline solution for more 30 min in dark and cell fluorescence was determined by flow cytometry as described above.

HL-60 cell xenografts = assay: Human myeloid leukemia xenograft model; type: in vivo, C.B-17 SCID mice; conditions: 0.1 mg/kg intraperitoneal once a day for 13 consecutive days
Experimental: Fifty six specific-pathogen-free (SPF) C.B-17 severe combined immunodeficient (SCID) mice (females, 23–26 g) were used in this study. The animals were obtained and maintained at animal facilities from Gonçalo Moniz Institute-FIOCRUZ (Salvador, Bahia, Brazil), and housed in cages with free access to food and water, and kept under a 12:12 h light-dark cycle (lights on at 6:00 a.m.). The animals were treated according to ethical principles for animal experimentation of SBCAL (Brazilian Association of Laboratory Animal Science), Brazil. Experimental protocol have been approved (number 06/2015) by Animal Ethics Committee of Gonçalo Moniz Institute-FIOCRUZ (Salvador, Bahia, Brazil).
Human myeloid leukemia xenograft model was carry out as described previously by Rodrigues et al.[26] with minor modifications. HL-60 cells (2.5 × 10^7 cells/500 µL) were implanted subcutaneously into the left front armpit of the mice. […] When the tumors reached 100 to 200 mm^3 (22 days after HL-60 cells injection), the animals were treated through the intraperitoneal route (200 µL per animal) once a day for 13 consecutive days. One day after the end of the treatment, the animals were anesthetized, and peripheral blood samples were collected from brachial artery. Animals were euthanized by anesthetic overdose, and tumors were excised and weighed.

[6] = Toxicological evaluation in xenograft mice; type: in vivo, C.B-17 SCID mice; conditions: doxorubicin 0.1 mg/kg
Experimental: To assess toxicological aspects, mice were weighed at the beginning and at the end of the experiment as described previously by Rodrigues et al.[26]. […] Hematological analysis was performed using the Advia 60 hematology system (Bayer, Leverkusen, Germany). Livers, kidneys, lungs and hearts were removed, weighed and examined for any signs of macroscopic lesions, color changes and/or hemorrhages. After macroscopic examination, tumors, livers, kidneys, lungs and hearts were fixed in 4% formalin buffer and embedded in paraffin. Tissue sections were stained with hematoxylin/eosin staining, and a pathologist performed the histological analyses under optical microscopy.

HL-60 cells [7] = assay: Apoptosis quantification, annexin V-FITC/PI flow cytometry; type: cell-based, human
Experimental: Shortly, cells were washed twice with saline solution and resuspended in 100 μL of binding buffer plus 5 μL of propidium iodide (PI) and 5 μL of FITC Annexin V. Then, cells were gently mixed by vortexing and incubated for 15 min at room temperature in the dark. Finally, 400 μL of binding buffer was added to each tube, and the cell fluorescence was determined by flow cytometry, as described above. Percentage of viable, early apoptotic, late apoptotic and necrotic cells were measured. […] Cells were then analyzed by FITC Annexin V Apoptosis Detection assay as described above.

[8] = tested on: PBMC (human peripheral blood mononuclear cells); assay: Cytotoxicity, alamar blue assay; type: cell-based; conditions: Homo sapiens, PBMC, non-cancer cells, 72 h, read-out: IC50 and 95% CI, PBMC
Excerpt: HL-60 (human acute promyelocytic leukemia), K-562 (human chronic myelogenous leukemia), HCT116 (human colon carcinoma), HepG2 (human hepatocellular carcinoma), HSC-3 (human oral squamous cell carcinoma), SCC-9 (human oral squamous cell carcinoma), B16-F10 (mouse melanoma), MRC-5 (human lung fibroblast), WT SV40 MEF (wild-type immortalized mouse embryonic fibroblast) and BAD KO SV40 MEF (BAD gene knockout immortalized mouse embryonic fibroblast) cell lines were obtained from American Type Culture Collection (ATCC, Manassas, VA, USA). Human peripheral blood mononuclear cells (PBMC) were isolated using standard Ficoll density gradient from heparinized blood collected from 20- to 35-year-old, non-smoker healthy donors with informed consent (number 031019/2013) approved by Human Ethics Committee of Gonçalo Moniz Institute from Oswaldo Cruz Foundation (IGM-FIOCRUZ/BA), and all experiments were performed in accordance with relevant guidelines and regulations. Cells were cultured as recommended by ATCC guidelines and a mycoplasma stain kit (Sigma-Aldrich) was used to validate the use of cells free from contamination. Cell viability in all experiments was examined using the trypan blue exclusion (TBE) assay. Over 90% of the cells were viable at the beginning of the culture.
as §1

HL-60 cells [9] = assay: Trypan blue exclusion assay; type: cell-based, human; conditions: HL-60, 24 h, 1 μM
Experimental: The number of viable cells and non-viable (take up trypan blue) were counted by TBE method. Shortly, 90 μL was removed from the cell suspension and 10 μL of trypan blue (0.4%) was added. Cell counting was performed using a light microscope with a neubauer chamber.

HL-60 cells [10] = assay: Morphological analysis (May-Grunwald-Giemsa staining, light scattering); type: cell-based, human; conditions: HL-60, 12 and 24 h; DOX 1 µM
Experimental: To cell morphology evaluation, slides were prepared using cytospin and stained with May-Grunwald-Giemsa. Morphological changes were assessed by light microscopy (Olympus BX41, Tokyo, Japan) using Image-Pro software (Media Cybernetics, Inc. Silver Spring, USA). Light scattering features were determined by flow cytometry. At least 10^4 events were recorded per sample using a BD LSRFortessa cytometer along with BD FACSDiva Software (BD Biosciences, San Jose, CA, USA) and Flowjo Software 10 (Flowjo LCC, Ashland, OR, USA). Cellular debris was omitted from the analysis.

## COc1cccc2c1C(=O)c1c(O)c3c(c(O)c1C2=O)C[C@@](O)(C(=O)CO)C[C@@H]3O[C@H]1C[C@H](N)[C@H](O)[C@H](C)O1 [doxorubicin, reference compound]
[1]
  IC50: 0.41 µM
[2]
  IC50: 0.04 µM
[3]
  IC50: 1.43 µM
[4]
  IC50: 0.02 µM
HL-60 cells [5]
  Mitochondrial transmembrane potential, in words: induced depolarization of mitochondrial transmembrane potential
HL-60 cell xenografts
  Reduction of tumor weight: 62.0%
[6]; complex 1 20 and 40 mg/kg
  Kidney histopathology: Coagulation necrosis was observed in renal tubules
  Lung histopathology: tumor nodules were observed only in one animal
[6]; mice bearing HL-60 cells, 13 days
  Body weight: decreased body weight
HL-60 cells [7]; HL-60, 12 and 24 h, DOX 1 µM
  Apoptotic cells, in words: induced apoptosis
HL-60 cells [7]; HL-60, 2 h pre-treatment 50 µM Z-VAD(OMe)-FMK, then 24 h
  Apoptosis on cotreatment with pan-caspase inhibitor Z-VAD(OMe)-FMK, in words: led to apoptosis through caspases pathways
[8]
  IC50: 5.17 µM
HL-60 cells [9]
  Reduction of the number of viable cells: reduced the number of viable cells
HL-60 cells [10]
  Cell morphology, May-Grunwald-Giemsa staining: presented changes associated with apoptosis
